Reference: ChEMBL document CHEMBL5661975, “Discovery and pharmacologic characterization of CP-724,714, a selective ErbB2 tyrosine kinase inhibitor” (Cancer Res, 2007)
≈ marks a conversion by molar mass, not a printed value. Calls of active or inactive are those of the source. The rule behind the calls is not given here.

What was measured:
LoVo = assay: Antitumor activity against human LoVo low expressing erbB2 cells xenografted bearing female athymic nu-nu CD-1 mouse assessed as inhibition in tumor growth at 100 mg/kg, po bid administrated for 14 to 31 days relative to control; format: functional; conditions: time 14-31 day
MDA-MB-453 [1] = assay: Antitumor activity against human MDA-MB-453 high expressing erbB2 cells xenografted bearing female athymic nu-nu CD-1 mouse assessed as inhibition in tumor growth at 100 mg/kg, po bid administrated for 8 to 40 days relative to control; format: functional; conditions: time 8-40 day
ZR-75-30 = assay: Antiproliferative activity against human ZR-75-30 cells assessed as inhibition of cell growth; format: functional, cell-based
HCC1419 = assay: Antiproliferative activity against human HCC1419 cells assessed as inhibition of cell growth; format: functional, cell-based
[2] = Plasma concentration in human erbB2 transfected FRE cells xenografted bearing female athymic nu-nu CD-1 mouse at 25 mg/kg, po measured at 30 mins by liquid chromatography-tandem mass spectrometry analysis; format: ADME, organism-based
BT-474 [3] = assay: Antitumor activity against human BT-474 expressing erbB2 cells xenografted bearing female athymic nu-nu CD-1 mouse assessed as reduction in tumor erbB2 receptor phosphorylation at 1 to 30 mg/kg, po bid administration and measured at 40 day by ELISA method relative to control; format: functional; parameters: scale not given: the % may be the effect or the level left; conditions: dose 1-30 mg/kg
[4] = Antitumor activity against human erbB2 transfected FRE cells xenografted bearing female athymic nu-nu CD-1 mouse assessed as reduction in tumor erbB2 receptor phosphorylation at 25 mg/kg, po and measured at 30 mins by ELISA method relative to control; format: functional; parameters: scale not given: the % may be the effect or the level left; conditions: 0.5 h
BT-474 [5] = assay: Induction of cell cycle arrest in Her2-amplified human BT-474 cells overexpressing erbB2 assessed as increase in G1 phase at 1 micromol/L incubated for 24 hrs by flow cytometry analysis relative to control; format: functional; conditions: dose 1 µmol/L, at 1 µM
ZR-75-1 = assay: Antiproliferative activity against human ZR-75-1 cells assessed as inhibition of cell growth; format: functional, cell-based
SK-BR-3 = assay: Inhibition of colony formation in human SK-BR-3 cells overexpressing erbB2 assessed as decrease in colony formation at 3 micromol/L by methanolic crystal violet staining relative to control; format: functional; conditions: dose 3 µmol/L
MDA-MB-453 [6] = assay: Antitumor activity against human MDA-MB-453 expressing erbB2 cells xenografted bearing female athymic nu-nu CD-1 mouse assessed as inhibition in tumor growth at 50 mg/kg, po bid administration and measured at 29 day relative to control; format: functional; conditions: MDA-MB-453, 696 h
[7] = Antiproliferative activity against human SUM190PT cells assessed as inhibition of cell growth; format: functional, cell-based
FRE [8] = assay: Antitumor activity against human erbB2 transfected FRE cells xenografted bearing female athymic nu-nu CD-1 mouse assessed as inhibition in tumor volume at 6.25 to 100 mg/kg, po QD administrated for 8 to 40 days; format: functional, organism-based; conditions: dose 6.25-100 mg/kg, time 8-40 day
MDA-MB-453 [9] = assay: Antitumor activity against human MDA-MB-453 expressing erbB2 cells xenografted bearing female athymic nu-nu CD-1 mouse assessed as inhibition in tumor growth at 25 mg/kg, po bid administration and measured at 29 day relative to control; format: functional; conditions: MDA-MB-453, 696 h
MDA-MB-361 = assay: Antiproliferative activity against human MDA-MB-361 cells assessed as inhibition of cell growth; format: functional, cell-based
BT-474 [10] = assay: Induction of cell cycle arrest in Her2-amplified human BT-474 cells overexpressing erbB2 assessed as reduction in S phase at 1 micromol/L incubated for 24 hrs by flow cytometry analysis relative to control; format: functional; parameters: scale not given: the % may be the effect or the level left; conditions: dose 1 µmol/L, at 1 µM
BT-20 = assay: Antiproliferative activity against human BT-20 cells assessed as inhibition of cell growth; format: functional, cell-based
FRE [11] = assay: Antitumor activity against human erbB2 transfected FRE cells xenografted bearing female athymic nu-nu CD-1 mouse assessed as increase in cleaved caspase-3 cells at 100 mg/kg, po administration and measured at 8 hrs by immunohistochemical analysis; format: functional, organism-based
BT-474 [12] = assay: Antitumor activity against human BT-474 expressing erbB2 cells xenografted bearing female athymic nu-nu CD-1 mouse assessed as tumor regression at 100 mg/kg, po bid administration and measured at 9 day relative to control; format: functional
MDA-MB-175-VII = assay: Antiproliferative activity against human MDA-MB-175-VII cells assessed as inhibition of cell growth; format: functional, cell-based
BT-474 [13] = assay: Antitumor activity against human BT-474 expressing erbB2 cells xenografted bearing female athymic nu-nu CD-1 mouse assessed as inhibition in tumor growth at 10 mg/kg, po bid administration and measured at 40 day relative to control; format: functional; conditions: BT-474, 960 h
FRE [14] = assay: Antitumor activity against human erbB2 transfected FRE cells xenografted bearing female athymic nu-nu CD-1 mouse assessed as tumor erbB2 receptor phosphorylation at 25 mg/kg, po administration and measured at 4 hrs by ELISA method; format: functional, organism-based
[15] = Antitumor activity against human erbB2 transfected FRE cells xenografted bearing female athymic nu-nu CD-1 mouse assessed as apoptotic changes at 100 mg/kg, po administration and measured at 8 hrs by H&E staining method relative to control; format: functional
BT-474 [16] = assay: Antitumor activity against human BT-474 expressing erbB2 cells xenografted bearing female athymic nu-nu CD-1 mouse assessed as tumor regression at 100 mg/kg, po bid administration and measured at 40 day relative to control; format: functional
BT-474 [17] = assay: Inhibition of colony formation in human BT-474 cells overexpressing erbB2 assessed as decrease in colony formation at 1 micromol/L by methanolic crystal violet staining relative to control; format: functional; conditions: dose 1 µmol/L
[18] = Toxicity in human erbB2 transfected FRE cells xenografted bearing female athymic nu-nu CD-1 mouse assessed as body weight loss at 50 mg/kg, po QD administrated for 8 to 40 days; format: organism-based; conditions: in vivo, time 8-40 day
FRE [19] = assay: Antitumor activity against human erbB2 transfected FRE cells xenografted bearing female athymic nu-nu CD-1 mouse assessed as tumor erbB2 receptor phosphorylation at 3.125 to 100 mg/kg, po administration by ELISA method; format: functional, organism-based; conditions: dose 3.125-100 mg/kg
[20] = Antiproliferative activity against human SUM225CWN cells assessed as inhibition of cell growth; format: functional, cell-based
BT-474 [21] = assay: Antitumor activity against human BT-474 cells expressing erbB2 xenografted bearing female athymic nu-nu CD-1 mouse assessed as inhibition in tumor growth at 100 mg/kg, po bid administration and measured at 40 day relative to control; format: functional; conditions: BT-474, 960 h
COLO 205 = assay: Antitumor activity against human COLO 205 low expressing erbB2 cells xenografted bearing female athymic nu-nu CD-1 mouse assessed as inhibition in tumor growth at 100 mg/kg, po bid administrated for 14 to 31 days relative to control; format: functional; conditions: time 14-31 day
MDA-MB-453 [22] = assay: Antiproliferative activity against human MDA-MB-453 cells assessed as inhibition of cell growth; format: functional, cell-based
BT-474 [23] = assay: Antitumor activity against human BT-474 high expressing erbB2 cells xenografted bearing female athymic nu-nu CD-1 mouse assessed as inhibition in tumor regression at 100 mg/kg, po bid administrated for 8 to 40 days relative to control; format: functional; conditions: time 8-40 day
BT-474 [24] = assay: Antitumor activity against human BT-474-erbB2 cells xenografted bearing female athymic nu-nu CD-1 mouse assessed as reduction in tumor erbB2 receptor phosphorylation, po administration by ELISA method; format: functional, organism-based

For `COCC(=O)NC/C=C/c1ccc2ncnc(Nc3ccc(Oc4ccc(C)nc4)c(C)c3)c2c1` [CP-724714], which inhibition in vivo at 100 mg/kg (LoVo) is on record?
Its inhibition in vivo at 100 mg/kg is 46%.

What about the inhibition in vivo at 100 mg/kg (MDA-MB-453 [1]) of the same molecule?
Its inhibition in vivo at 100 mg/kg is 83%.

What about the IC50 (ZR-75-30) of the same molecule?
Its IC50 is 1.5 µM.

What about the IC50 (HCC1419) of the same molecule?
The IC50 was 1 µM.

What about the concentration at 0.5 h [2] of the same molecule?
The concentration at 0.5 h was roughly 12500 ng/mL.

What about the Activity (BT-474 [3]) of the same molecule?
Its Activity is 10%.

What about the Activity [4] of the same molecule?
The Activity was roughly 75%.

What about the Activity (BT-474 [5]) of the same molecule?
The Activity was 83%.

What about the IC50 (ZR-75-1) of the same molecule?
Its IC50 is greater than 10 µM.

And the inhibition at 3 µM (SK-BR-3)?
The inhibition at 3 µM was greater than 80%.

What about the inhibition in vivo at 50 mg/kg (MDA-MB-453 [6]) of the same molecule?
Its inhibition in vivo at 50 mg/kg is 66%.

And the IC50 [7]?
Its IC50 is 0.71 µM.

What about the inhibition (FRE [8]) of the same molecule?
Its inhibition is “Active”.

And the inhibition in vivo at 25 mg/kg (MDA-MB-453 [9])?
Its inhibition in vivo at 25 mg/kg is roughly 19%.

What about the IC50 (MDA-MB-361) of the same molecule?
Its IC50 is 3.7 µM.

What about the Activity (BT-474 [10]) of the same molecule?
The Activity was 3.2%.

And the IC50 (BT-20)?
The IC50 was greater than 10 µM.

And the Activity (FRE [11])?
Its Activity is “Active”.

And the Activity (BT-474 [12])?
The Activity was roughly 6%.

What about the IC50 (MDA-MB-175-VII) of the same molecule?
The IC50 was 0.81 µM.

What about the inhibition in vivo at 10 mg/kg (BT-474 [13]) of the same molecule?
Its inhibition in vivo at 10 mg/kg is 42%.

And the Activity (FRE [14])?
Its Activity is “inactive”.

And the Activity [15]?
The Activity was 75%.

What about the Activity (BT-474 [16]) of the same molecule?
Its Activity is 61%.

And the inhibition at 1 µM (BT-474 [17])?
The inhibition at 1 µM was greater than 80%.

And the Activity [18]?
Its Activity is “Non-Toxic”.

And the Activity (FRE [19])?
The Activity was “Active”.

What about the IC50 [20] of the same molecule?
The IC50 was 0.99 µM.

And the inhibition in vivo at 100 mg/kg (BT-474 [21])?
Its inhibition in vivo at 100 mg/kg is 100%.

And the inhibition in vivo at 100 mg/kg (COLO 205)?
Its inhibition in vivo at 100 mg/kg is 46%.

What about the IC50 (MDA-MB-453 [22]) of the same molecule?
Its IC50 is 2.5 µM.

And the inhibition in vivo at 100 mg/kg (BT-474 [23])?
The inhibition in vivo at 100 mg/kg was 83%.

And the EC50 (BT-474 [24])?
The EC50 was 0.77 µg/mL (≈ 1.64 µM).
